Results taken from patent US9707196B2, “Treatment agent and/or prophylactic agent for side effects of cancer drugs” (SBI Pharmaceuticals Co., Ltd., priority 2011, dated 2017).

How the values were obtained:
[1] = Case of an advanced colon cancer patient taking aminolevulinic acid phosphate salt and sodium ferrous citrate concurrently with anticancer agent therapy (Example 4); format: in vivo, human; conditions: one patient
[2] = tested on: SD rats; assay: Side effects accompanying cisplatin administration in rats, with or without ALA (Example 1: survival, kidney HE staining, hair luster, stool state, activity); format: in vivo, rat; conditions: for Damage to the kidney (HE staining, Day 16): FIG. 2
Description: Forty-four 6 weeks-old SD rats (male) were purchased from Japan SLC, Inc. They were used for experiments after conditioning for 7 days after purchase.
The experiment duration was a total of 16 days, and experiment groups were divided into the following 5 groups I to V according to the ALA administration condition. […] CDDP administration dose was 8.0 mg/kg of body weight, and each rat was intraperitoneally administered. Saline was administered instead of cisplatin to Group I as the negative control group. ALA was also administered to Groups III, […], and V according to the following schedule. On the other hand, no ALA was administered to the positive control group (Group II). ALA administration to Groups III, IV, and V was performed by daily oral administration of 10 mg/kg of body weight of ALA hydrochloride salt+15.7 mg/kg of body weight of sodium ferrous citrate (dissolved in distilled water and sodium bicarbonate).
(ALA Administration Conditions of Groups I to V)
Group I (negative control group): Saline was administered on Day 6 from the start of experiment. They were otherwise kept as usual. n=4
Group II (positive control group): CDDP was administered on Day 6 from the start of experiment. They were otherwise kept as usual. n=10
Group III (“pre-administration group”): ALA was administered for a total of 5 days from the starting day of experiment to Day 5. CDDP was also administered on Day 6. They were otherwise kept as usual. n=10
Group IV (“post-administration group”): On Day 6 from the start of experiment, ALA was administered, and then CDDP was administered. ALA was also administered for 10 days from Day 6 to Day 15. They were otherwise kept as usual. n=9
Group V (“full administration group”): ALA was administered for 15 days from the starting day of experiment to Day 15. On Day 6, ALA was administered, and then CDDP was administered. n=9
Blood was collected every two days for 15 days from the starting day of experiment to Day 15. Observation of hair luster, stool state, and activity of rats was also carried out. Each rat was also dissected on Day 16, and the kidney was resected. Kidney sections were prepared after resection, and observed under a microscope after HE staining.
Side effects were strongly observed from Day 9 to Day 13 from the starting day of experiment. Accordingly, the state on Days 9, 11, and 13 were scored and evaluated. Hair luster here evaluates the side effect related to skin symptoms. Stool state evaluates the side effect related to the gastrointestinal system. Activity evaluates the side effect related to general symptoms, in particular evaluates the side effect related to malaise.
Each item was evaluated for each mouse by the following criteria, and is the numerical value of the sum of the three days (Days 9, 11, and 13) divided by the number of evaluation subject mice.
5: Very good, 4: ordinarily state, 3: slightly poor, 2: poor, and 1: death
5: Ordinarily stool, 4: small amount of stool, 3: slight diarrhea, 2: diarrhea, and 1: death
5: Ordinarily state, 4: weak movement, 3: slight movement, 2: no movement, and 1: death

[3] = tested on: T24 cells (human transitional cell bladder cancer cells); assay: Cell toxicity of cisplatin against T24 cells with or without ALA (WST-8, Cell Counting Kit-8); format: cell-based; conditions: ALA hydrochloride salt 200 μM + sodium ferrous citrate 100 μM, any timing, FIG. 8
Description: (§1) It was validated whether or not ALA administration has an influence on the cell toxicity (anticancer effect) of anticancer agent against cancer cells.
(§2) The following cancer cells were employed in this experiment: T24 cells (human transitional cell bladder cancer cells) and 253J-BV cells (human urinary tract epithelium cancer cells). […] ALA hydrochloride salt was employed as ALA. In addition, sodium ferrous citrate was administered together with ALA administration.
(§3) Cell toxicity at each concentration was compared in the following Groups I to IV.
(§4) Group I: “No addition group,” i.e. the group with no ALA administered
(§5) Group II: “Pre-administration group,” i.e. the group with ALA administered only “during preculture”
(§6) (1) T24 cells (human transitional cell bladder cancer cells) or 253J-BV cells (human urinary tract epithelium cancer cells) were cultured with a 10 cm dish in DMEM medium comprising 10% FBS to a subconfluent state. They were then collected by trypsin treatment.
(§7) (2) For test groups Group I (no addition group) and Group III (simultaneous administration group), the cells collected in (1) were suspended to a density of 50000 cells/ml in DMEM medium comprising 10% FBS. […]

[4] = tested on: 253J-BV cells (human urinary tract epithelium cancer cells); assay: Cell toxicity of cisplatin against 253J-BV cells with or without ALA (WST-8, Cell Counting Kit-8); format: cell-based; conditions: ALA hydrochloride salt 200 μM + sodium ferrous citrate 100 μM, any timing, FIG. 9
Description: as §1, §2, §3, §4, §5, §6, §7

[5] = tested on: SD rats; assay: Side effects on the kidney (nephrotoxicity) and weight loss accompanying cisplatin administration in rats, with or without ALA (Example 2); format: in vivo, rat; conditions: for Effect on side effects of anticancer agent on the kidney: FIGS. 4 to 6
Description: Serum creatinine and urea nitrogen value (BUN) were measured from blood samples. Moreover, urine protein was measured from urine samples.
Weight loss which is a side effect on general symptoms as well as a side effect related to the gastrointestinal system was also observed at the same time.
Forty-six 6 weeks-old SD rats (male) were purchased from Japan SLC, Inc. They were conditioned for 7 days after purchase. Body weight measurement, blood collection, and urine collection of each rat were performed at the end of the conditioning period. The experiment was started on the next day with 44 rats. Two individuals that had poor serum creatinine, urea nitrogen value (BUN), and urine protein value at the measurement after conditioning were excluded from the experiment.
In this experiment, experiment groups were divided into the following 4 groups I to IV according to the ALA administration condition. The experiment was otherwise performed similarly to Example 1.
Group I (negative control group): Saline was administered on Day 6 from the start of experiment. They were otherwise kept as usual. n=8
Group II (positive control group): CDDP was administered on Day 6 from the start of experiment. They were otherwise kept as usual. n=14
Group III (“post-administration group”): On Day 6 from the start of experiment, ALA was administered, and then CDDP was administered. ALA was also administered for 10 days from Day 6 to Day 15. They were otherwise kept as usual. n=10
Group IV (“full administration group”): ALA was administered for 15 days from the starting day of experiment to Day 15. On Day 6, ALA was administered, and then CDDP was administered. n=11
The body weight of each rat was measured, and blood and urine collection was carried out on starting day of experiment, Days 6, 7, 9, 11, 13, and 15. The collected blood samples were used for measuring serum creatinine and urea nitrogen value (BUN). In addition, the collected urine samples were used for measuring urine protein. Each rat was also dissected on Day 16, and the kidney was resected and observed.

[6] = Group III (pre-administration): ALA hydrochloride salt 10 mg/kg + sodium ferrous citrate 15.7 mg/kg oral daily to Day 5, CDDP 8.0 mg/kg i.p. Day 6, sum of scores of Days 9, 11, 13 per animal
[7] = Group IV (post-administration): ALA hydrochloride salt 10 mg/kg + sodium ferrous citrate 15.7 mg/kg oral daily Day 6 to Day 15, CDDP 8.0 mg/kg i.p. Day 6, sum of scores of Days 9, 11, 13 per animal
[8] = Group V (full administration): ALA hydrochloride salt 10 mg/kg + sodium ferrous citrate 15.7 mg/kg oral daily from starting day to Day 15, CDDP 8.0 mg/kg i.p. Day 6, sum of scores of Days 9, 11, 13 per animal
[9] = Groups III, IV and V (ALA + CDDP) versus Group II, FIG. 1

## aminolevulinic acid phosphate salt
[1]; FOLFOX, FOLFIRI and Avastin with oral 50 mg aminolevulinic acid phosphate salt + 57.4 mg sodium ferrous citrate per day
  Time for which anticancer agent therapy could be continued after the surgery: one year
[1]; Jan. 28, 2011, about 1 year and 5 months after starting oral 50 mg aminolevulinic acid phosphate salt + 57.4 mg sodium ferrous citrate per day, just before surgery 9.80
  Hemoglobin: 12.20 g/dL
[1]; Jan. 28, 2011, about 1 year and 5 months after starting oral 50 mg aminolevulinic acid phosphate salt + 57.4 mg sodium ferrous citrate per day, just before surgery 13.20
  Number of Leukocytes: 6200 µL⁻¹
[1]; Jan. 28, 2011, about 1 year and 5 months after starting oral 50 mg aminolevulinic acid phosphate salt + 57.4 mg sodium ferrous citrate per day, just before surgery (Aug. 19, 2009) 2.97
  Number of Erythrocytes: 3.44e+06 µL⁻¹
[1]; about 1 year and 5 months after starting intake, with sodium ferrous citrate
  Anemia improvement effect: anemia as a side effect of administration of anticancer agent is improved
[1]; declared life expectancy 3 months, oral 50 mg aminolevulinic acid phosphate salt + 57.4 mg sodium ferrous citrate per day
  Survival after surgery: one and a half years

## NCC(=O)CCC(=O)O [ALA, 5-aminolevulinic acid]
[2]; ALA-administered groups + CDDP
  Damage to the kidney (HE staining, Day 16): alleviated the damage to the kidney
[2]; Group III (pre-administration) and Group IV (post-administration) + CDDP
  Damage to the kidney (HE staining, Day 16): a certain effect
[2]; Group III (pre-administration) or Group IV (post-administration) + CDDP, FIG. 1
  Rat survival rate: a certain suppression effect
[2]; [6]
  Activity (final evaluation): 8.10
  Hair luster (final evaluation): 8.10
  Overall evaluation (final evaluation): 7.50
  Stool state (final evaluation): 8.90
[2]; [7]
  Activity (final evaluation): 9.56
  Hair luster (final evaluation): 8.89
  Overall evaluation (final evaluation): 8.78
  Stool state (final evaluation): 10.78
[2]; Group V (full administration) + CDDP
  Damage to the kidney (HE staining, Day 16): the most effective
[2]; [8]
  Activity (final evaluation): 11.33
  Hair luster (final evaluation): 11.33
  Overall evaluation (final evaluation): 9.67
  Stool state (final evaluation): 13.33
[2]; Group V (full administration, ALA throughout) + CDDP, FIG. 1
  Rat survival rate: highest survival rate
[2]; [9]
  Rat survival rate until Day 16: reduction in the survival rate until Day 16 could be suppressed
  Timing of the start of reduction in the survival rate: the timing of the start of reduction in the survival rate was delayed
[3]
  Influence of ALA administration on anticancer effect of cisplatin: hardly attenuated
[4]
  Influence of ALA administration on anticancer effect of cisplatin: hardly attenuated
[5]; Group III (post-administration) + CDDP, FIG. 3
  Effect on weight loss: a certain effect
[5]; Group III (post-administration) + CDDP
  Effect on side effects of anticancer agent on the kidney: a certain effect
[5]; Group III (post-administration) and Group IV (full administration), ALA + CDDP, FIG. 3
  Decrease in body weight: decreased in body weight due to the side effects from anticancer agent was suppressed
[5]; Group III and Group IV, ALA + CDDP, FIG. 3
  Re-increase of body weight: re-increase of body weight was observed on Day 5 and after
[5]; Group III and Group IV, ALA + CDDP, slight increase on Day 3, FIG. 6
  Urine protein value: a value not much different from the negative control group was maintained
[5]; Group III and Group IV, ALA + CDDP, slight increase on Day 5, FIG. 4
  Serum creatinine value: a value not much different from the negative control group was maintained
[5]; Group III and Group IV, ALA + CDDP, slight increase on Day 5, FIG. 5
  Urea nitrogen value (BUN): a value not much different from the negative control group was maintained
[5]; Group IV (full administration) + CDDP, FIG. 3
  Effect on weight loss: the most effective
[5]; Group IV (full administration) + CDDP
  Effect on side effects of anticancer agent on the kidney: the most effective

## N.N.[Cl][Pt][Cl] [cisplatin, reference compound]
[2]; Group II (positive control): CDDP 8.0 mg/kg i.p. Day 6, no ALA, FIG. 1
  Rat survival rate: reduction in the survival rate was seen on Day 9
[2]; Group II (positive control): CDDP 8.0 mg/kg i.p. on Day 6, no ALA, sum of scores (5 best, 1 death) of Days 9, 11, 13 divided by number of animals
  Hair luster (final evaluation): 7.80
